Laboratory results from patent publication US20120214830A1, “BIOLOGICAL MARKERS PREDICTIVE OF ANTI-CANCER RESPONSE TO INSULIN-LIKE GROWTH FACTOR-1 RECEPTOR KINASE INHIBITORS IN HEPATOCELLULAR CARCINOMA” (OSI Pharmaceuticals, LLC, priority 2011, published 2012).

Key:
HLE = test: Cell Titer-Glo proliferation assay, 72 h; assay type: cell-based; conditions: Homo sapiens, HLE cells
Protocol: (§1) Cell lines: Twenty-one HCC cell lines were purchased from either ATCC (HepG2, Hep3B, PLC/PRF/5, SK-Hepl, SNU-182, SNU-387, SNU-398, SNU-423, SNU-449, SNU-475) or Health Science Research Resources Bank (Japan) (HUH-1, HUH-6, HUH-7, HLE, HLF, JHH-1, JHH-2, JHH-4, JHH-5, JHH-6, JHH-7). All the cell lines were maintained in media as described by the vendors. For growth inhibition assays, cells were plated and allowed to proliferate for 24 hours. After 24 hours, cells had reached approximately 15% confluency, at which time serial dilutions of OSI-906 were added and the cells grown for a further 72 hours. Cell viability was assayed using the Cell Titer-Glo reagent (Promega Corp., Madison, Wis.). Proliferation Assay. Proliferation was assayed using Cell Titer Glo assays (Promega) and was determined 72 hours following dosing with OSI-906. The basis of the assay is a luminescent quantitation of ATP present in a cell culture plate well. In essence, the greater the number of viable cells in the well, the greater the level of ATP present. The assay utilizes a substrate that binds ATP to produce a luminescent signal, which can be read on a luminometer. Unless otherwise noted, the manufacturer's instructions were followed exactly. Briefly, on Day 1, cells were plated in […] of 10% serum-containing growth media at a density of 4000 cells/well in a white polystyrene 96 well assay plate. On day 2, cells were treated with 15 μl of 10× concentration of the IGF-1R inhibitor (e.g. OSI-906) or DMSO alone for a final well volume of 150 μl. After 72 h incubation with the inhibitor, the cells were assayed. Results were calculated as a fraction of the DMSO controlled cells.

Hep G2 = test: Cell Titer-Glo proliferation assay, 72 h; assay type: cell-based; conditions: Homo sapiens, HepG2, Hep G2 cells
Protocol: as §1

Huh-1 = test: Cell Titer-Glo proliferation assay, 72 h; assay type: cell-based; conditions: Homo sapiens, Huh-1 cells
Protocol: as §1

Huh-6 = test: Cell Titer-Glo proliferation assay, 72 h; assay type: cell-based; conditions: Homo sapiens, Huh-6 cells
Protocol: as §1

Huh-7 = test: Cell Titer-Glo proliferation assay, 72 h; assay type: cell-based; conditions: Homo sapiens, Huh-7 cells
Protocol: as §1

JHH-2 = test: Cell Titer-Glo proliferation assay, 72 h; assay type: cell-based; conditions: Homo sapiens, JHH-2 cells
Protocol: as §1

JHH-4 = test: Cell Titer-Glo proliferation assay, 72 h; assay type: cell-based; conditions: Homo sapiens, JHH-4 cells
Protocol: as §1

JHH-5 = test: Cell Titer-Glo proliferation assay, 72 h; assay type: cell-based; conditions: Homo sapiens, JHH-5 cells
Protocol: as §1

JHH-6 = test: Cell Titer-Glo proliferation assay, 72 h; assay type: cell-based; conditions: Homo sapiens, JHH-6 cells
Protocol: as §1

PLC/PRF/5 = test: Cell Titer-Glo proliferation assay, 72 h; assay type: cell-based; conditions: Homo sapiens, PLC/PRF/5 cells
Protocol: as §1

SK Hep-1 = test: Cell Titer-Glo proliferation assay, 72 h; assay type: cell-based; conditions: Homo sapiens, SK-HEP1, SK Hep-1 cells
Protocol: as §1

SNU-182 = test: Cell Titer-Glo proliferation assay, 72 h; assay type: cell-based; conditions: Homo sapiens, SNU-182 cells
Protocol: as §1

SNU-387 = test: Cell Titer-Glo proliferation assay, 72 h; assay type: cell-based; conditions: Homo sapiens, SNU-387 cells
Protocol: as §1

SNU-398 = test: Cell Titer-Glo proliferation assay, 72 h; assay type: cell-based; conditions: Homo sapiens, SNU-398 cells
Protocol: as §1

SNU-423 = test: Cell Titer-Glo proliferation assay, 72 h; assay type: cell-based; conditions: Homo sapiens, SNU-423 cells
Protocol: as §1

SNU-449 = test: Cell Titer-Glo proliferation assay, 72 h; assay type: cell-based; conditions: Homo sapiens, SNU-449 cells
Protocol: as §1

SNU-475 = test: Cell Titer-Glo proliferation assay, 72 h; assay type: cell-based; conditions: Homo sapiens, SNU-475 cells
Protocol: as §1

[1] = test system: HUH-1, JHH-5 and HepG2 cells; test: Proliferation assay with OSI-906 after TGFβ treatment; assay type: cell-based, human; conditions: cells grown with 10 ng/ml TGFβ for 10 days, HUH-1, JHH-5, HepG2
Protocol: Proliferation Assay. Proliferation was assayed using Cell Titer Glo assays (Promega) and was determined 72 hours following dosing with OSI-906. The basis of the assay is a luminescent quantitation of ATP present in a cell culture plate well. In essence, the greater the number of viable cells in the well, the greater the level of ATP present. The assay utilizes a substrate that binds ATP to produce a luminescent signal, which can be read on a luminometer. Unless otherwise noted, the manufacturer's instructions were followed exactly. Briefly, on Day 1, cells were plated in 120 μl of 10% serum-containing growth media at a density of 4000 cells/well in a white polystyrene 96 well assay plate. On day 2, cells were treated with 15 μl of 10× concentration of the IGF-1R inhibitor (e.g. OSI-906) or DMSO alone for a final well volume of 150 μl. After 72 h incubation with the inhibitor, the cells were assayed. Results were calculated as a fraction of the DMSO controlled cells.

**Q.** What does the source list for `C[C@]1(O)C[C@@H](c2nc(-c3ccc4ccc(-c5ccccc5)nc4c3)c3c(N)nccn32)C1` [OSI-906, cis-3-[8-amino-1-(2-phenyl-quinolin-7-yl)-imidazo[1,5-a]pyrazin-3-yl]-1-methyl-cyclobutanol]?
**A.** inhibition at 5 µM (HLE; 5 μM OSI-906, 72 h): < 40%; EC50 (HLE; 72 h OSI-906): > 10 µM; inhibition at 5 µM (Hep G2; 5 μM OSI-906, 72 h): 77%; EC50 (Hep G2; 72 h OSI-906): 0.22 µM; inhibition at 5 µM (Huh-1; 5 μM OSI-906, 72 h): 74%; EC50 (Huh-1; 72 h OSI-906): 0.18 µM; inhibition at 5 µM (Huh-6; 5 μM OSI-906, 72 h): 41%; EC50 (Huh-6; 72 h OSI-906): 0.25 µM; inhibition at 5 µM (Huh-7; 5 μM OSI-906, 72 h): 70%; EC50 (Huh-7; 72 h OSI-906): 0.37 µM; inhibition at 5 µM (JHH-2; 5 μM OSI-906, 72 h): < 40%; EC50 (JHH-2; 72 h OSI-906): > 10 µM; inhibition at 5 µM (JHH-4; 5 μM OSI-906, 72 h): < 40%; EC50 (JHH-4; 72 h OSI-906): > 10 µM; inhibition at 5 µM (JHH-5; 5 μM OSI-906, 72 h): 80%; EC50 (JHH-5; 72 h OSI-906): 0.19 µM; inhibition at 5 µM (JHH-6; 5 μM OSI-906, 72 h): < 40%; EC50 (JHH-6; 72 h OSI-906): > 10 µM; inhibition at 5 µM (PLC/PRF/5; 5 μM OSI-906, 72 h): < 40%; EC50 (PLC/PRF/5; 72 h OSI-906): > 10 µM; inhibition at 5 µM (SK Hep-1; 5 μM OSI-906, 72 h): < 40%; EC50 (SK Hep-1; 72 h OSI-906): > 10 µM; inhibition at 5 µM (SNU-182; 5 μM OSI-906, 72 h): < 40%; EC50 (SNU-182; 72 h OSI-906): > 10 µM; inhibition at 5 µM (SNU-387; 5 μM OSI-906, 72 h): < 40%; EC50 (SNU-387; 72 h OSI-906): > 10 µM; inhibition at 5 µM (SNU-398; 5 μM OSI-906, 72 h): < 40%; EC50 (SNU-398; 72 h OSI-906): > 10 µM; inhibition at 5 µM (SNU-423; 5 μM OSI-906, 72 h): < 40%; EC50 (SNU-423; 72 h OSI-906): > 10 µM; inhibition at 5 µM (SNU-449; 5 μM OSI-906, 72 h): < 40%; EC50 (SNU-449; 72 h OSI-906): > 10 µM; inhibition at 5 µM (SNU-475; 5 μM OSI-906, 72 h): < 40%; EC50 (SNU-475; 72 h OSI-906): > 10 µM; HCC cell sensitivity to OSI-906 after TGFβ treatment [1]: decreased
